# Measurements reported in publication PMC3971528, “Leishmania infantum EndoG Is an Endo/Exo-Nuclease Essential for Parasite Survival” (PLoS ONE, 2014).
# Target: T1, LiEndoG (rLiEndoG) (Leishmania infantum, UniProt B0ZTD3)
# T1 construct: gene endog; recombinant from pRSET-LiendoG in E. coli BL21(DE3) pLys
# T1 sequence (B0ZTD3 1-510): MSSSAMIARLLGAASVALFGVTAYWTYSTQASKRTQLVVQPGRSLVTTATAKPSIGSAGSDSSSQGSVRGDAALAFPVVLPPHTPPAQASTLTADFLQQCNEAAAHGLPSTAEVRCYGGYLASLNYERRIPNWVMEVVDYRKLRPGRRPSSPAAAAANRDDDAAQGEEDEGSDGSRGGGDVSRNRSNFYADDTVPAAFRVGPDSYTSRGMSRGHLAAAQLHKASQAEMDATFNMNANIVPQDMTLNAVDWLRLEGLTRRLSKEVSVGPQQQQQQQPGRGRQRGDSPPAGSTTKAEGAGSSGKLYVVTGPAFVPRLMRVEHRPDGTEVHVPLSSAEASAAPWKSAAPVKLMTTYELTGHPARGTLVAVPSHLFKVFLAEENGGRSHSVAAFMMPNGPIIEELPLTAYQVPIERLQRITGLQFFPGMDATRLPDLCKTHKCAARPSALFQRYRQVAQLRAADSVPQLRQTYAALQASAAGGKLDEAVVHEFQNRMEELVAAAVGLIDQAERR
# Experiment: fluorescence nuclease assay, FAM/TAMRA double-stranded oligonucleotide probe
# Format: biochemical
# Details: inhibitor; 30 pmol probe, 2.5 ng/mL LiEndoG, 40 min; increasing Lei49
smiles,measurement,value
"Cc1cn([C@H]2C[C@H](OC(=O)CCC(=O)OCCOC(=O)[C@@H](N)C(C)C)[C@@H](COC(c3ccccc3)(c3ccccc3)c3ccccc3)O2)c(=O)[nH]c1=O [Lei49, 2-[(S)-2-Amino-3-methylbutanoyl-oxy]ethyl [(2R,3S,5R)-5-(thymin-1-yl)-2-(trityloximethyl)tetrahydrofuran-3-yl] succinate]","fluorescence nuclease assay, FAM/TAMRA double-stranded oligonucleotide probe",Inhibition of the nuclease activity of LiEndoG by Lei49.
